Experimental data: article PMC7044277 (Nature Communications, 2020)
Values joined by “and” are separate entries in the source; they are usually repeats but may differ in a detail not shown here. Identical values can stand only once.

Legend:
Format in all cases: cell-based
320 non-olfactory GPCRs [1] = biological target: T1, 320 non-olfactory GPCRs (Homo sapiens, UniProt O00398); conditions: receptor P2RY10; replicate values, Fig_4g
T1 construct: expressed in transfected cells; host or cells: HTLA cells

320 non-olfactory GPCRs [2] = biological target: T2, 320 non-olfactory GPCRs (Homo sapiens, UniProt O00421)
T2 construct: expressed in transfected cells; host or cells: HTLA cells

320 non-olfactory GPCRs [3] = biological target: T3, 320 non-olfactory GPCRs (Homo sapiens, UniProt O14842)
T3 construct: expressed in transfected cells; host or cells: HTLA cells

320 non-olfactory GPCRs [4] = biological target: T4, 320 non-olfactory GPCRs (Homo sapiens, UniProt P43115); conditions: receptor PTGER3; replicate values, Fig_4g
T4 construct: expressed in transfected cells; host or cells: HTLA cells
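Throughout, for Fold of Basal: compound tested at 1 µM final concentration.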
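Throughout, for GPCRome agonism screen response: fold over basal response of each receptor without drug.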

T2 sequence (O00421 whole entry): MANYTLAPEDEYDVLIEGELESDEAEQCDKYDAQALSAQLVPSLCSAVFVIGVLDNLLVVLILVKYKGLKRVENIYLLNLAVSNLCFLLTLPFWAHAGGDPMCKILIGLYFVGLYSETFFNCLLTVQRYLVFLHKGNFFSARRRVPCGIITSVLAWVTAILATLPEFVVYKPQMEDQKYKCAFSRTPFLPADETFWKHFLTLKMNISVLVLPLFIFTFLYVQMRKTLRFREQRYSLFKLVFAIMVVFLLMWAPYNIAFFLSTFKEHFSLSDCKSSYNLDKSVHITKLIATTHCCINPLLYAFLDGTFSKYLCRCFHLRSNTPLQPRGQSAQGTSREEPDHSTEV
T3 sequence (O14842 whole entry): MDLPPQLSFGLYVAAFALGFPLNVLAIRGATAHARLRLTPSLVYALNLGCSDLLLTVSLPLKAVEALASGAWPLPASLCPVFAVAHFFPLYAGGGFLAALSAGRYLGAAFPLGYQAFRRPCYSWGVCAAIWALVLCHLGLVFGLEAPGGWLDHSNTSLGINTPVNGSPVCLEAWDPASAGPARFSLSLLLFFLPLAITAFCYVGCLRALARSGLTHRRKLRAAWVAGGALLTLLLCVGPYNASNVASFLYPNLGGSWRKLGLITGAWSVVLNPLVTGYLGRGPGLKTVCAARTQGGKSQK
T4 sequence (P43115 whole entry): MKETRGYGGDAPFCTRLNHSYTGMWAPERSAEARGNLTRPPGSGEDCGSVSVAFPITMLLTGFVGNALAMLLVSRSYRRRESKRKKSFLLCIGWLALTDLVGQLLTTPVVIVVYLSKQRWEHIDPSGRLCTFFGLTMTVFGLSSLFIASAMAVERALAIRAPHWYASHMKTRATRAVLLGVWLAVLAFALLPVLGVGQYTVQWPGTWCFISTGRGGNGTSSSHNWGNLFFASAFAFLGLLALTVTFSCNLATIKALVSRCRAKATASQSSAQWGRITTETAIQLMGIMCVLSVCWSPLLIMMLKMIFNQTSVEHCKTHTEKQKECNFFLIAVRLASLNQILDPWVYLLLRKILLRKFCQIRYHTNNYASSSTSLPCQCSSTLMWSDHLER
T1 sequence (O00398 whole entry): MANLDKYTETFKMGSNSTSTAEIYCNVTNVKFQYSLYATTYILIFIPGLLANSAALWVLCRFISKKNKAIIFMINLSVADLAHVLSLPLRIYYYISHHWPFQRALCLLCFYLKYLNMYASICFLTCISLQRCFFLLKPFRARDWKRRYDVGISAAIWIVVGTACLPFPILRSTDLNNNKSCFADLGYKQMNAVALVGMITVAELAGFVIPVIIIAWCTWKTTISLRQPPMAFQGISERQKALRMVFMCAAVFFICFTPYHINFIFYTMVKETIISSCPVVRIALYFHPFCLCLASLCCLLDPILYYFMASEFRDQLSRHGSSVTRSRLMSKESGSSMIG

**Q.** How did the “GPCRome agonism screen response” value (320 non-olfactory GPCRs [1]) turn out when `CCOc1cccc2cc(C(C)NCC3(O)CCCCC3)oc12` (stereo not shown) [O4LE6] was run?
**A.** 0.6744 and 0.6284 and 0.7052 and 0.972

**Q.** What about the “Fold of Basal” value (320 non-olfactory GPCRs [2]) of the same molecule?
**A.** 1.0982 and 0.8519 and 0.828 and 1.211

**Q.** And the “Fold of Basal” value (320 non-olfactory GPCRs [3])?
**A.** 1.069 and 1.057 and 1.21 and 0.9963

**Q.** And the “GPCRome agonism screen response” value (320 non-olfactory GPCRs [4])?
**A.** 0.07165 and 0.9825 and 0.5999
